Consider 20 molecules from US9120749B2, “Quinoline derivatives and MELK inhibitors containing the same” (ONCOTHERAPY SCIENCE, INC., priority 2010, dated 2015).

One assay relates to A549 cells. The assay is described as follows: Cell-based assay: anti-proliferative activity, Cell Counting Kit-8, 72 hours (A549). The conditions noted are these: Homo sapiens, A549, 72 h, MELK-expressing, Cell Counting Kit-8 at 72 hours. In a few lines: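 A549 cells were seeded in 96-well plates and exposed to candidate inhibitors for 72 hours. Cell growth was then measured with Cell Counting Kit-8, and IC50 values were calculated from the resulting growth data.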
A general note: Tetrazolium dyes change colour on reduction, which living cells bring about.

The next assay addresses MELK (Homo sapiens, UniProt Q14680). Briefly: Kinase assay: MELK activity, phosphorylation of FITC-labeled histone H3 peptide measured by IMAP fluorescence polarization. The format is biochemical. The conditions noted are these: 50 micro-M ATP, FITC-labeled histone H3 peptide substrate, IMAP fluorescence polarization; read-out: IC50 (μM) (kinase assay). In a few lines: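 Compounds, serially diluted from 12.5 mM DMSO stocks to 1% final DMSO, were tested with FITC-labeled histone H3 peptide as substrate. The reaction was stopped with progressive binding solution. Fluorescence polarization was read after 0.5 hour at room temperature.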
In general terms: Polarisation of emitted light reports the rotation of a fluorescent probe.

In a further assay the test system is HT-1197 cells. Briefly: Cell-based assay: anti-proliferative activity, Cell Counting Kit-8, 72 hours (HT-1197, negative control without MELK expression). To be noted: Homo sapiens, HT1197, 72 h, HT1197 cells, no MELK expression (negative control); Cell Counting Kit-8 at 72 hours. Summed up:
(§1)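 Anti-MELK western blot on crude lysates → MELK status per line. Cells plated 96-well, compound exposure, CCK-8 readout at 72 h; IC50 calculated.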

For the next assay, the system named is T47D cells. The assay is described as follows: Cell-based assay: anti-proliferative activity, Cell Counting Kit-8, 72 hours (T47D). To be noted: Homo sapiens, T47D, 72 h, MELK-expressing, Cell Counting Kit-8 at 72 hours. In a few lines: as §1
Another assay has as its system BT-549 cells. The assay is described as follows: Cell-based assay: anti-proliferative activity, Cell Counting Kit-8, 72 hours (BT-549). To be noted: Homo sapiens, BT-549, 72 h, BT549 cells, MELK-expressing; Cell Counting Kit-8 at 72 hours. Summed up: as §1

MELK, sequence (Q14680 whole entry, looked up): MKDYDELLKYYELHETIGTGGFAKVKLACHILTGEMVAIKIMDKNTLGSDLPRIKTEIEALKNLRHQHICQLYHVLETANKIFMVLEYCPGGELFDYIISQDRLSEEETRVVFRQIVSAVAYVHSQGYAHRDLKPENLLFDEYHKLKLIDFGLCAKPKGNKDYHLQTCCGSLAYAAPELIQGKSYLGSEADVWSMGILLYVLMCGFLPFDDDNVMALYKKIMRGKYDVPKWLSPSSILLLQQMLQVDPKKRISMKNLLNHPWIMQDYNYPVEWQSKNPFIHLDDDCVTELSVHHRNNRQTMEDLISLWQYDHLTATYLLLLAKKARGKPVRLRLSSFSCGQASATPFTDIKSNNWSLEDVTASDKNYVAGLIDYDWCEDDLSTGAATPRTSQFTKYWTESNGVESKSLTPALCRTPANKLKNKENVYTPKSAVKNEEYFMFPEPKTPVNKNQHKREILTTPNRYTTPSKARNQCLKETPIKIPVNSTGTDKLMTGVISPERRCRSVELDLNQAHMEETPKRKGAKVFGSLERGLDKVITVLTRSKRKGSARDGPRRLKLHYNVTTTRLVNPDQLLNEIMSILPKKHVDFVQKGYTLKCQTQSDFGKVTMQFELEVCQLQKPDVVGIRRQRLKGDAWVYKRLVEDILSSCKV

By IC50 is commonly meant the concentration that inhibits the measured activity by half. For the molecule `CN(C)[C@H]1CC[C@H](Nc2c(C(=O)C3CC3)cnc3cc(F)c(-c4cc(F)c(O)c(F)c4)cc23)CC1` [Example 294, Cyclopropyl{6-(3,5-difluoro-4-hydroxyphenyl)-4-[trans-4-(dimethylamino)cyclohexylamino]-7-fluoroquinolin-3-yl}methanone], the IC50 with A549 cells was 0.43 µM; on MELK it was 0.042 µM; in the assay with HT-1197 cells it was 1.5 µM; in the assay with T47D cells, 0.68 µM; with BT-549 cells it was 0.55 µM.

For `CN(C)[C@H]1CC[C@H](Nc2c(C(=O)C3CC3)cnc3cc(F)c(-c4cc(F)c(O)c(Cl)c4)cc23)CC1` [Example 295, {6-(3-Chloro-5-fluoro-4-hydroxyphenyl)-4-[trans-4-(dimethylamino)cyclohexylamino]-7-fluoroquinolin-3-yl}(cyclopropyl)methanone], the half-maximal inhibitory concentration (IC50) in the assay on A549 cells is 0.31 µM; on MELK it was 0.027 µM; with HT-1197 cells, 1.2 µM; in the assay with T47D cells, 0.42 µM; in the assay on BT-549 cells it was 0.39 µM.

On to `CCN(CC)C1CCC(Nc2c(C(C)=O)cnc3ccc(-c4cc(Cl)c(O)c(OC)c4)cc23)CC1` (stereo not shown) [Example 303, 1-{6-(3-Chloro-4-hydroxy-5-methoxyphenyl)-4-[4-(diethylamino)cyclohexylamino]quinolin-3-yl}ethanone], for which the IC50 in the assay on A549 cells came to 0.35 µM; at MELK, 0.0061 µM; in the assay on HT-1197 cells, 7.4 µM; in the assay on T47D cells, 0.39 µM; with BT-549 cells, 1.7 µM.

Consider `COc1cc(-c2ccc3ncc(C(C)=O)c(N4CCC(CN(C)C)CC4)c3c2)cc(Cl)c1O` [Example 305, 1-[6-(3-chloro-4-hydroxy-5-methoxyphenyl)-4-{4-[(dimethylamino)methyl]piperidin-1-yl}quinolin-3-yl]ethanone], for which the IC50 in the assay with A549 cells was determined as 0.14 µM; at MELK, 0.0022 µM; with HT-1197 cells, 3.6 µM; in the assay with T47D cells it was 0.21 µM; in the assay with BT-549 cells it was 0.33 µM.

With `COc1cc(-c2ccc3ncc(C(=O)C4CC4)c(N4CCC(CN5CCCC5)CC4)c3c2)cc(F)c1O` [Example 307, Cyclopropyl{6-(3-fluoro-4-hydroxy-5-methoxyphenyl)-4-[4-(pyrrolidin-1-ylmethyl)piperidin-1-yl]quinolin-3-yl}methanone], the half-inhibitory concentration (IC50) in the assay on A549 cells worked out at 0.53 µM; on MELK, 0.0041 µM; with HT-1197 cells, 3 µM; in the assay on T47D cells, 0.79 µM; with BT-549 cells, 1.2 µM.

With `COc1cc(-c2ccc3ncc(C(=O)C4CC4)c(NC45CC6CC(CC(N)(C6)C4)C5)c3c2)cc(Cl)c1O` [Example 309, {6-(3-Chloro-4-hydroxy-5-methoxyphenyl)-4-[(3-amino)adamantylamino]quinolin-3-yl}(cyclopropyl)methanone], the IC50 in the assay on A549 cells amounted to 0.28 µM; at MELK, 0.0087 µM; with HT-1197 cells, 0.5 µM; in the assay with T47D cells, 0.32 µM; with BT-549 cells, 0.49 µM.

On to `CCN(CC)[C@H]1CC[C@@H](Nc2c(C(=O)C3CC3)cnc3ccc(-c4cc(Cl)c(O)c(OC)c4)cc23)CC1` [Example 311, {6-(3-Chloro-4-hydroxy-5-methoxyphenyl)-4-[cis-4-(diethylamino)cyclohexylamino]quinolin-3-yl}(cyclopropyl)methanone], for which the IC50 was determined as 0.21 µM with A549 cells; 0.0032 µM at MELK; 7.6 µM in the assay on HT-1197 cells; 0.51 µM with T47D cells; 1.5 µM in the assay on BT-549 cells.

As to `O=C(c1cnc2ccc(-c3ccc(O)c(OC(F)(F)F)c3)cc2c1N1CCC(CN2CCCC2)CC1)C1CC1` [Example 313, Cyclopropyl{6-[4-hydroxy-3-(trifluoromethoxy)phenyl]-4-[4-(pyrrolidin-1-ylmethyl]piperidin-1-yl}quinolin-3-yl)methanone], the IC50 in the assay on A549 cells was 0.8 µM; at MELK, 0.012 µM; with HT-1197 cells it was 3.2 µM; in the assay on T47D cells, 0.67 µM; with BT-549 cells it was 1.3 µM.

In the case of `CCN(CC)[C@H]1CC[C@H](Nc2c(C(=O)C3CC3)cnc3ccc(-c4cc(Cl)c(O)c(OC)c4)cc23)CC1` [Example 314, {6-(3-Chloro-4-hydroxy-5-methoxyphenyl)-4-[trans-4-(diethylamino)cyclohexylamino]quinolin-3-yl}(cyclopropyl)methanone], the IC50 was determined as 0.22 µM with A549 cells; 0.0031 µM at MELK; 4.3 µM in the assay on HT-1197 cells; 0.16 µM with T47D cells; 0.73 µM in the assay on BT-549 cells.

On to `COc1cc(-c2ccc3ncc(C(=O)C4CC4)c(NC[C@H]4CC[C@H](N(C)C)CC4)c3c2)cc(Cl)c1O` [Example 315], for which the half-maximal inhibitory concentration (IC50) with A549 cells turned out to be 0.3 µM; on MELK it was 0.0043 µM; in the assay on HT-1197 cells, 3 µM; in the assay on T47D cells it was 0.64 µM; in the assay on BT-549 cells, 1.4 µM.

With `COc1cc(-c2ccc3ncc(C(=O)C4CC4)c(N[C@H]4CC[C@H](CN(C)C)CC4)c3c2)cc(Cl)c1O` [Example 316], the half-inhibitory concentration (IC50) in the assay on A549 cells was determined as 0.32 µM; on MELK, 0.011 µM; in the assay on HT-1197 cells, 6.3 µM; in the assay with T47D cells, 0.5 µM; with BT-549 cells, 1.3 µM.

Take `CC(C)C(=O)c1cnc2ccc(-c3ccc(O)c(Cl)c3)cc2c1N1CCC(CN2CCCC2)CC1` [Example 318, 1-{6-(3-Chloro-4-hydroxyphenyl)-4-[4-(pyrrolidin-1-ylmethyl)piperidin-1-yl]quinolin-3-yl}-2-methylpropan-1-one]: the concentration for half-maximal inhibition (IC50) with A549 cells came out at 0.87 µM; on MELK, 0.02 µM; in the assay with HT-1197 cells, 1.4 µM; with T47D cells, 0.92 µM; with BT-549 cells it was 1.8 µM.

`COc1cc(-c2ccc3ncc(C(C)=O)c(N4CCC(CN5CCCC5)CC4)c3c2)cc(Cl)c1O` [Example 321, 1-{6-(3-Chloro-4-hydroxy-5-methoxyphenyl)-4-[4-(pyrrolidin-1-ylmethyl)piperidin-1-yl]quinolin-3-yl}ethanone]: the concentration for half-maximal inhibition (IC50) in the assay on A549 cells turned out to be 0.18 µM; at MELK, 0.0027 µM; with HT-1197 cells it was 5.1 µM; in the assay on T47D cells, 0.19 µM; in the assay with BT-549 cells, 0.29 µM.

As for `CC(C)C(=O)c1cnc2ccc(-c3cc(F)c(O)c(Cl)c3)cc2c1N1CCC(CN2CCCC2)CC1` [Example 323, 1-{6-(3-Chloro-5-fluoro-4-hydroxyphenyl)-4-[4-(pyrrolidin-1-ylmethyl)piperidin-1-yl]quinolin-3-yl}-2-methylpropan-1-one], the 50% inhibitory concentration (IC50) with A549 cells is 0.87 µM; on MELK, 0.013 µM; in the assay with HT-1197 cells it was 1.2 µM; in the assay on T47D cells it was 0.63 µM; in the assay with BT-549 cells, 1.5 µM.

In the case of `CN(C)[C@H]1CC[C@H](CNc2c(C(=O)C3CC3)cnc3ccc(-c4cc(Cl)c(O)c(Cl)c4)cc23)CC1` [Example 325, Cyclopropyl[6-(3,5-dichloro-4-hydroxyphenyl)-4-{[trans-4-(dimethylamino)cyclohexyl]methylamino}quinolin-3-yl]methanone], the IC50 turned out to be 0.62 µM in the assay on A549 cells; 0.011 µM at MELK; 10 µM with HT-1197 cells; 0.78 µM in the assay on T47D cells; 1.9 µM in the assay on BT-549 cells.

Take `CN(C)[C@H]1CC[C@H](CNc2c(C(=O)C3CC3)cnc3ccc(-c4cc(F)c(O)c(Cl)c4)cc23)CC1` [Example 327]: the IC50 in the assay on A549 cells worked out at 0.42 µM; on MELK it was 0.0055 µM; in the assay with HT-1197 cells, 3 µM; in the assay on T47D cells, 0.48 µM; in the assay on BT-549 cells it was 1 µM.

Take `O=C(c1cnc2ccc(-c3ccc(O)c(Cl)c3)cc2c1N1CCC(CN2CCOCC2)CC1)C1CC1` [Example 332, {6-(3-Chloro-4-hydroxyphenyl)-4-[4-(morpholinomethyl)piperidin-1-yl]quinolin-3-yl}(cyclopropyl)methanone]: the IC50 in the assay on A549 cells came to 0.55 µM; on MELK it was 0.035 µM; with HT-1197 cells, 10 µM; in the assay with T47D cells, 0.67 µM; in the assay with BT-549 cells it was 1.5 µM.

On to `COc1cc(-c2ccc3ncc(C(=O)C4CC4)c(N4CCC(CN5CCOCC5)CC4)c3c2)cc(Cl)c1O` [Example 334, {6-(3-Chloro-4-hydroxy-5-methoxyphenyl)-4-[4-(morpholinomethyl)piperidin-1-yl]quinolin-3-yl}(cyclopropyl)methanone], for which the IC50 is 0.41 µM with A549 cells; 0.0081 µM at MELK; 4.8 µM in the assay on HT-1197 cells; 0.55 µM in the assay with T47D cells; 0.77 µM with BT-549 cells.

Consider `CCN(CC)C1CCC(Nc2c(C(C)=O)cnc3ccc(-c4ccc(O)c(Cl)c4)cc23)CC1` (stereo not shown) [Example 335, 1-{6-(3-Chloro-4-hydroxyphenyl)-4-[4-(diethylamino)cyclohexylamino]quinolin-3-yl}ethanone], for which the IC50 with A549 cells stood at 0.29 µM; on MELK, 0.021 µM; with HT-1197 cells, 1.2 µM; with T47D cells, 0.1 µM; with BT-549 cells, 0.65 µM.

With `CC(=O)c1cnc2ccc(-c3cc(F)c(O)c(Cl)c3)cc2c1N1CCC(CN2CCCC2)CC1` [Example 336, 1-{6-(3-Chloro-5-fluoro-4-hydroxyphenyl)-4-[4-(pyrrolidin-1-ylmethyl)piperidin-1-yl]quinolin-3-yl}ethanone], the IC50 with A549 cells was 0.8 µM; on MELK it was 0.0069 µM; with HT-1197 cells, 5 µM; in the assay on T47D cells it was 0.33 µM; with BT-549 cells it was 0.85 µM.
